Reference: patent US20220162240A1, “MITOCHONDRIA-TARGETED ISOKETAL/ISOLEVUGLANDIN SCAVENGERS” (Vanderbilt University, priority 2019, published 2022)
“Also recorded” adds a separate entry of the source.

Key:
[1] = system: human aortic endothelial cells (HAEC); assay: Mitochondrial superoxide in HAEC incubated with Ang II plus TNFα (MitoSOX/HPLC); assay type: cell-based; settings: 50 nM, Ang II + TNFα 24 hours, MitoSOX/HPLC
Method: (§1) Free radical oxidation of arachidonic acid produces highly reactive isolevuglandins (isoLG) which causes mitochondrial dysfunction by opening of the mitochondrial permeability transition pore (mPTP). […] The functional role of mitochondrial isoLG was tested in vivo using angiotensin II model of hypertension. C57Bl/6J mice were infused with angiotensin II (0.7 mg/kg/day) or saline (Sham) and received mito2HOBA in the drinking water (0.1 g/L). […] Decrease of NO is a hallmark of endothelial dysfunction in hypertension due to vascular oxidative stress.
(§2) Mitochondrial O2^• and cardiolipin oxidation (specific marker of mitochondrial dysfunction and oxidative stress) in cultured human aortic endothelial cells (HAEC) were incubated with Ang II and TNFα.

[2] = system: human aortic endothelial cells (HAEC); assay: Cardiolipin oxidation in HAEC incubated with Ang II plus TNFα (LC/MS); assay type: cell-based; settings: 50 nM, Ang II + TNFα 24 hours
Method: as §1, §2

[3] = system: Ang II-infused C57Bl/6J mice; assay: Blood pressure in angiotensin II-induced hypertension, mito2HOBA in drinking water; assay type: in vivo; settings: Ang II 0.7 mg/kg/day, compound 0.1 g/L in drinking water
Method: (§3) (A) Blood pressure in C57Bl/6J mice infused with saline (Sham) or Ang II ([…]). Mito2HOBA was supplemented in drinking water (0.1 g/L). (B) Western blot of aorta mitochondria for isoLG adducts (D11 antibody), CypD, GCN5L1, Sirt3 and CypD acetylation (CypD i.p. and anti-Acetyl-K WB). Results are mean±SEM. *P<0.01 vs Sham, **P<0.01 vs Ang II (n=8).
(A) Blood pressure in C57Bl/6J wild type mice infused with either saline (Sham) or Ang II ([…]). Mito2HOBA was supplemented in drinking water (0.1 g/L). (B) Mitochondrial isoLG were measured by Western blot in the heart mitochondria using D11 antibody as we have previously described. Results are mean±SEM. *P<0.01 vs Sham, **P<0.01 vs Ang II (n=8).
(§4) Sham or Ang II-infused mice were supplemented with mito2HOBA in the drinking water (0.1 g/L) or plain water. […] Following 14 days of Ang II infusion, mice were sacrificed, aortas were isolated for Western blot studies. […] This causes an imbalance between mitochondrial acetylation and deacetylation pathways leading to hyperacetylation of mitochondrial proteins measured by Ac-K and CypD hyperacetylation.
The present inventors implanted an osmotic minipump with Ang II (0.7 mg/kg/day) or saline (Sham) in C57Bl/6J mice receiving mito2HOBA in the drinking water (0.1 g/L) or plain water. […]

[4] = system: mitochondrial isoLG protein adducts; assay: Western blot of isoLG adducts (D11 antibody) in heart mitochondria of Ang II-infused mice; assay type: in vivo; settings: 0.1 g/L in drinking water, 14 days
Method: Mito2HOBA was supplemented in drinking water (0.1 g/L). […] Results are mean±SEM. *P<0.01 vs Sham, **P<0.01 vs Ang II (n=8).
as §1

[5] = system: mitochondrial isoLG protein adducts; assay: Western blot of isoLG adducts and CypD-isoLG (D11 antibody) in aorta mitochondria of Ang II-infused mice; assay type: in vivo
Method: as §3
FIG. 18 is a western blot analysis of isoLG protein adducts in mitochondria isolated from aorta dissected from C57Bl/6J mice infused with Ang II and treated with mito2HOBA (A). CypD-isoLG modification was determined by CypD immunoprecipitation and Western blot with anti-isoLG D11 antibody (B).
as §4
The potential CypD-isoLG adduct formation was determined by CypD immunoprecipitation and Western blot with anti-isoLG D11 antibody.

CypD acetylation = assay: Western blot of aorta mitochondria for GCN5L1, Sirt3, Ac-K and CypD acetylation in Ang II-infused mice; assay type: in vivo; settings: 0.1 g/L in drinking water; for CypD acetylation: CypD i.p. and anti-Acetyl-K WB
Method: as §3, §4
Hypertension impairs mitochondrial function and mito2HOBA attenuates mitochondrial dysfunction, and accumulation of mitochondrial isoLG in hypertension promotes CypD acetylation and mPTP opening, impairs mitochondrial respiration and reduces ATP. Scavenging of mitochondrial isoLG with mito2HOBA prevents these deleterious effects. The inventors analyzed kidney tissue isolated from control mice (Sham), mice drinking mito2HOBA, mice infused with Ang II and Ang II-infused mice supplemented with mito2HOBA (mito2HOBA+Ang II).

[6] = system: isoLG-Lysyl-Lactam protein adducts; assay: LC/MS/MS of isoLG-Lys-Lactam protein adducts in kidney mitochondria of Ang II-infused mice; assay type: in vivo; settings: 0.1 g/L in drinking water
Method: (A) Representative LC/MS/MS chromatograms; (B) isoLG-Lys-Lactam levels in mitochondria isolated from kidneys of mice drinking water (Sham), mito2HOBA (0.1 g/L), and infused with Ang II (0.7 mg/kg/day). Results are mean±SEM (n=3). *P<0.05 vs Ang II.

kidney mitochondria = settings: Ang II-infused mice, 0.1 g/L in drinking water
Method: C57Bl/6J mice were infused with Ang II ([…]) and mito2HOBA in the drinking water (0.1 g/L). Following 14 days of Ang II infusion the animals were sacrificed and kidneys were isolated for mitochondrial studies. […] Respiratory control ratio (State 3/State 4) was measured in isolated kidney mitochondria with glutamate and malate […]. Control level is 100%. (B) Kidney ATP was measured in freshly isolated tissue by luciferase-based luminescent assay. Results are mean±SEM. *P<0.01 vs Sham, **P<0.01 vs Ang II (n=3-8).
(A) Respiratory control ratio (State 3/State 4) was measured in isolated kidney mitochondria with glutamate and malate. Control level is 100%. (B) Kidney ATP level was measured in freshly isolated tissue by luciferase-based luminescent assay. C57Bl/6J mice were infused with Ang II ([…]) and mito2HOBA was provided in the drinking water (0.1 g/L). Following 14 days of Ang II infusion the animals were sacrificed and kidneys were isolated for mitochondrial and ATP studies. Results are mean±SEM. *P<0.01 vs Sham, **P<0.01 vs Ang II (n=3-8).
The inventors analyzed kidney tissue isolated from control mice (Sham), mice drinking mito2HOBA, mice infused with Ang II and Ang II-infused mice supplemented with mito2HOBA (mito2HOBA+Ang II).
To show this, the present inventors analyzed kidney tissue isolated from control mice (Sham), mice drinking mito2HOBA (mito2HOBA), mice infused with Ang II (Ang II) and Ang II-infused mice supplemented with mito2HOBA (mito2HOBA+Ang II).

aortic superoxide = assay: Aortic superoxide by DHE probe and HPLC in Ang II-infused mice; assay type: in vivo; settings: 0.1 g/L in drinking water
Method: (§5) (A) Aortic […] was measured by DHE probe and HPLC. (B) Endothelial NO was analyzed by ESR and Fe(DETC)2. C57Bl/6J mice were infused with Ang II ([…]) and mito2HOBA was provided in the drinking water (0.1 g/L).
(§6) The present inventors examined vascular oxidative stress by measurements of aortic ? using fluorescent ? probe DHE and HPLC, and analysis of endothelial NO using Electron Spin Resonance and specific NO spin trap Fe(DETC)2.
(§7) Among the other actions O2^• inactivates endothelial nitric oxide (NO), promotes vasoconstriction and vascular remodeling and ultimately increases systemic vascular resistance. Decreased NO bioavailability is therefore a hallmark of endothelial oxidative stress in hypertension due to NO oxidation, reduced NO production and eNOS uncoupling. We measured aortic O2^• using the fluorescent O2^• probe DHE and HPLC as we described previously. Endothelial NO was quantified by Electron Spin Resonance (ESR) and specific NO spin trap Fe(DETC)2.

endothelial NO = assay: Endothelial NO by ESR and Fe(DETC)2 in Ang II-infused mice; assay type: in vivo; settings: 0.1 g/L in drinking water, ESR
Method: as §5, §6, §7

[7] = system: human aortic endothelial cells (HAECs); assay: Tolerability in cultured HAEC; assay type: cell-based
mice = assay: Tolerability in mice receiving compound in drinking water; assay type: in vivo
[8] = Method: as §1
The above example is a water soluble compound which can be supplied to cells in the media and provided to animals in the drinking water.

mitochondrial matrix = settings: TPP conjugate, given as example; cited from earlier work

4-(aminomethyl)-3-hydroxyphenoxy) butyl)triphenylphosphonium [mito2HOBA]
mitochondrial superoxide production / mitochondrial oxidative stress [1]: inhibited; also recorded: diminished mitochondrial oxidative stress; also recorded: inhibition of mitochondrial oxidative stress
cardiolipin oxidation [2]: prevented cardiolipin oxidation
cardiolipin oxidation ([2]; listed as Mito2HOBA): more effective in prevention of cardiolipin oxidation than 2HOBA
Ang II-induced hypertension (blood pressure) [3]: significantly attenuates
Ang II-induced hypertension (blood pressure) ([3]; listed as Mito2HOBA): significantly attenuated
isoLG adducts in heart mitochondria [4]: reduced accumulation of isoLG adducts
isoLG adducts in aorta mitochondria ([5]; Ang II-infused mice, 0.1 g/L in drinking water, 14 days, D11 antibody): prevents accumulation of isoLG adducts; also recorded: attenuated accumulation of mitochondrial isoLG
protein isoLG adducts and CypD-isoLG in aortic mitochondria ([5]; CypD immunoprecipitation and Western blot with D11 antibody): diminished
balance between GCN5L1 and Sirt3 in aorta mitochondria (CypD acetylation): corrects the imbalance between GCN5L1 and Sirt3
mitochondrial Ac-K (acetylation of mitochondrial proteins) (CypD acetylation): reduces mitochondrial Ac-K
CypD acetylation (CypD acetylation): reduced CypD acetylation
CypD acetylation (CypD acetylation; listed as Mito2HOBA): prevents CypD hyperacetylation
isoLG-Lysyl-Lactam protein adducts in kidney mitochondria [6]: abolished isoLG-Lysyl-Lactam adducts formation
mPTP opening (Ca2+ retention capacity) in kidney mitochondria (kidney mitochondria; 14 days): attenuates mPTP opening; also recorded: reduces mPTP opening
mitochondrial respiration (respiratory control ratio State 3/State 4) (kidney mitochondria; kidney mitochondria with glutamate and malate): protects mitochondrial respiration
kidney ATP (kidney mitochondria; luciferase-based luminescent assay): preserves normal ATP production
vascular (aortic) superoxide (aortic superoxide): reduced; also recorded: reduces vascular O2^•
endothelial NO (endothelial NO): preserved endothelial NO; also recorded: preserves NO bioavailability
tolerability by cultured HAECs [7]: well tolerated
concentration well tolerated by cultured HAECs ([7]; preliminary in vitro experiments): up to 200 nM
tolerability by mice receiving it in drinking water (mice): well tolerated
dose in drinking water well tolerated (mice; preliminary in vivo experiments): 0.1 to 0.3 g/L
water solubility [8]: water soluble

CC1(C)CC(NC(=O)C[P+](c2ccccc2)(c2ccccc2)c2ccccc2)CC(C)(C)N1[O] [mitoTEMPO]
concentration within the mitochondrial matrix (mitochondrial matrix): more than a five hundred-fold
